Assay results as given in article PMC3328449, “Inhibition of Diacylglycerol–Sensitive TRPC Channels by Synthetic and Natural Steroids” (PLoS ONE, 2012).

Target: T1, hTRPC3 (Homo sapiens, UniProt Q13507)
T1 construct: expressed in transfected cells
T1 sequence (Q13507 1-848 isoform Q13507-3): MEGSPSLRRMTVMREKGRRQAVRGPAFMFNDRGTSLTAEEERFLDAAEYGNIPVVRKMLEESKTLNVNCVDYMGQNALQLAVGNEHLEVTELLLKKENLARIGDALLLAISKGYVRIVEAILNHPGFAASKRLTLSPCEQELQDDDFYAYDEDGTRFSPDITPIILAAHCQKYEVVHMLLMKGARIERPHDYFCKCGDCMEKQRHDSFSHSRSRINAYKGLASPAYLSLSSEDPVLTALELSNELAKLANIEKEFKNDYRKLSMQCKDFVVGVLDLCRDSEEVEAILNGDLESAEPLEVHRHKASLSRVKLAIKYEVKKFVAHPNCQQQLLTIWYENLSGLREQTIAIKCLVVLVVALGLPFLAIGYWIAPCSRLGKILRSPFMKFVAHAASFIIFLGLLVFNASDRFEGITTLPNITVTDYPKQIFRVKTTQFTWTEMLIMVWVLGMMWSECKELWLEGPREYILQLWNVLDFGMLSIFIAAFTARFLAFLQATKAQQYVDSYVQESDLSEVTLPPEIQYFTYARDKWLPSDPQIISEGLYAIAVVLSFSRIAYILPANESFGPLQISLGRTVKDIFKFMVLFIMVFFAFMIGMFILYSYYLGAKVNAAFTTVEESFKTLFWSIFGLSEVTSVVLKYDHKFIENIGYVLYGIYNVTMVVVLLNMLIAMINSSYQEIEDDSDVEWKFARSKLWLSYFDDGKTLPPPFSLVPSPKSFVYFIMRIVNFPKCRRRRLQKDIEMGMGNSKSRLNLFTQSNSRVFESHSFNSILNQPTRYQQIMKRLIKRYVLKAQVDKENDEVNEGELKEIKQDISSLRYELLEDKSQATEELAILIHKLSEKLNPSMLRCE
Assay: Whole-cell patch clamp, AlF4- evoked TRPC3 currents
Assay type: cell-based
Details: 10 µM, AlF4- infusion
Description: hTRPC3 (GenBank accession number NM_003305) was stably expressed in chinese hamster ovary (CHO) cells using a proprietary high expression vector (Steinbeis –Transferzentrum für Angewandte Biologische Chemie, Mannheim, Germany).
The whole-cell patch clamp technique was employed to measure ion currents from single cells. Heat-polished patch pipettes with resistances of 2–4 MΩ were pulled from borosilicate glass capillaries (Hilgenberg, Malsfeld, Germany) using a DMZ-Universal puller (Zeitz-Instruments, Munich, Germany) and filled with standard intracellular solution containing: 120 mM CsOH, 120 mM gluconic acid, 2 mM MgCl2, 3 mM CaCl2, 5 mM Cs4-BAPTA, 10 mM HEPES (pH 7.4 adjusted with gluconic acid). For agonist-independent stimulation of TRPC currents the intracellular solution was supplemented with 30 µM AlCl3 and 10 mM NaF and cells were infused with AlF4 ^− through the patch pipette. […]
Cells grown on poly-L-lysine-coated coverslips were continuously superfused with extracellular solution and substances were applied using an ALA BPS-8 perfusion system (ALA Scientific Instruments, Westbury, USA). […] Cells were held at −70 mV, and current-voltage (I–V) relationships were routinely measured every 2 or 3 s by applying voltage ramps (180 ms) from −100 mV to +80 mV. […]

SMILES: C#C[C@]1(OC(C)=O)CC[C@H]2[C@@H]3CCC4=CC(=NO)CC[C@@H]4[C@H]3CC[C@@]21CC (mixture of isomers) [norgestimate]
- Inhibition of TRPC3 currents: almost completely inhibited
